From patent US6297282A, “Substituted derivatives of benzosulphonamides as inhibitors of the enzyme cyclooxygenase II” (Nycomed Austria GmbH, priority 1997, dated 2001)

Key:
[1] = molecular target: T1, cyclooxygenase-II (human COX-2) (Homo sapiens, UniProt P35354); assay: Human COX-2 Test (LPS-stimulated human monocytoid cell line, arachidonic acid, ELISA of cyclooxygenase products); assay type: cell-based; details: for IC50: LPS-stimulated human monocytoid cell line, half an hour incubation, then arachidonic acid 15 minutes, 37° C.; for COX I/COX II (selectivity): ratio of COX I IC50 to COX II IC50
T1 construct: endogenous in cells
T1 sequence (P35354 18-604): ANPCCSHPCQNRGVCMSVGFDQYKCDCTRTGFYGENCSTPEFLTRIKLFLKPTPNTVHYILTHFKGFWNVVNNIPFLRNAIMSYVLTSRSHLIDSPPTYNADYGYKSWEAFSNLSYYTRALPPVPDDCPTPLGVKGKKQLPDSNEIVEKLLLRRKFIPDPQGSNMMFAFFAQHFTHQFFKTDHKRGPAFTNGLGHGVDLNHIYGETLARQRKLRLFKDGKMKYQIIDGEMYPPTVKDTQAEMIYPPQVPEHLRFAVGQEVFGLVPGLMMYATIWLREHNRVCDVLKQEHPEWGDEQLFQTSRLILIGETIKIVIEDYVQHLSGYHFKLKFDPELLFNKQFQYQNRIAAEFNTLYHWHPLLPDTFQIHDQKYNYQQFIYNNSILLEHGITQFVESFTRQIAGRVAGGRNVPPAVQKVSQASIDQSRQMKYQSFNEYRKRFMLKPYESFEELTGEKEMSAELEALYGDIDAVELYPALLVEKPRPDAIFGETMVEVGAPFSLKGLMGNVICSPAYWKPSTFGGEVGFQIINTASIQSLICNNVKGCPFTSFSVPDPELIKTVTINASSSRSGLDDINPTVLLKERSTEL
Procedure: Cells of a human monocytoid cell line were stimulated with lipopolysaccharide (LPS) (incubator at 37° C., 5% CO2 -enriched atmosphere and almost 100% atmospheric humidity), in order to induce COX-2. Following this, the culture medium (RPMI 1640, enriched with 10% FCS, 2 mM glutamine, 10000 U/ml penicillin, […] and 1 mM pyruvate) is refreshed and potential inhibitor substances of cyclooxygenase-II, dissolved in culture medium or in phosphate-buffered saline or in some other solvent compatible with cell cultures, are added and then incubated for half an hour as described above. Arachidonic acid is added by pipette and incubation is carried out for a further 15 minutes. The culture supernatant of the cells is removed and its content of products of cyclooxygenase metabolism (e.g. Prostaglandin E2, Prostaglandin F1a, Thromboxane B2) is measured by ELISA.

[2] = molecular target: T2, cyclooxygenase-I (human COX-1) (Homo sapiens, UniProt P23219); assay: Human COX-1 Test (inhibition of arachidonic acid-induced aggregation of washed human thrombocytes); assay type: cell-based; details: arachidonic acid 10 μM final concentration, 37° C., test substance added 2 minutes before
T2 construct: arachidonic acid-induced aggregation of washed human thrombocytes; endogenous in cells; host or cells: washed human thrombocytes (blood platelets)
Procedure: Inhibition of the arachidonic acid-induced aggregation of washed human thrombocytes was used as a test system for an estimation of the inhibition of cyclooxygenase-I. A thrombocyte suspension at 37° C. was added to the test substances 2 minutes before addition of the arachidonic acid (10 μM final concentration) and the aggregation course was recorded via an aggregometer. With the assistance of a concentration-effect curve, the concentration of test substance was determined at which 50% aggregation was measured (IC50).

T2 sequence (P23219 24-599): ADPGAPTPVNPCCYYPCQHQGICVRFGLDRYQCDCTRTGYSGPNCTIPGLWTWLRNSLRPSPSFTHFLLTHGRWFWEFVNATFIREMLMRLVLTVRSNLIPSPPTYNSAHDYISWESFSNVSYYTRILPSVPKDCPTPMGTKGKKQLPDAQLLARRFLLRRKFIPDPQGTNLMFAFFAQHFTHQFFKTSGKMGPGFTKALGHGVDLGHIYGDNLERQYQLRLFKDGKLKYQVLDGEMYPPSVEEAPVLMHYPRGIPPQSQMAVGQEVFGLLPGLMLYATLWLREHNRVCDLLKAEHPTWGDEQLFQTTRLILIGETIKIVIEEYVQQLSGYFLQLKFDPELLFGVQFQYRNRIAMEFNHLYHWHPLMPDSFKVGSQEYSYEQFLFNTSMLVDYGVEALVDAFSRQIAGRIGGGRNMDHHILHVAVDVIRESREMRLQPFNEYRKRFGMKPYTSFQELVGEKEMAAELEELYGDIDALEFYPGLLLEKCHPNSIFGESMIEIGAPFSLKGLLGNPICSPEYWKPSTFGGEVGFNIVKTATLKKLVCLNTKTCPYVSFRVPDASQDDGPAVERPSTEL

CS(=O)(=O)Nc1ccc(S(N)(=O)=O)c(Cl)c1Sc1ccc(Cl)cc1Cl [Example 1, 3-(2,4-Dichlorophenylthio)-2-chloro-4-methylsulphonylamino-benzosulphonamide]
IC50 [1]: 0.1 µM
COX I/COX II (selectivity) [1]: 250
IC50 [2]: 25 µM

C=CS(=O)(=O)Nc1ccc(S(N)(=O)=O)cc1Sc1ccc(Cl)cc1Cl [Example 6, 3-(2,4-dichlorophenylthio)-4-vinylsulphonyl-amino-benzosulphonamide]
IC50 [1]: 0.1 µM
COX I/COX II (selectivity) [1]: 200
IC50 [2]: 20 µM
